≈ marks a conversion by molar mass, not a printed value. Where two headings read alike, the source gives them in different places.
How the values were obtained:
Format in all cases: cell-based
[1] = tested on: Candida albicans ATCC 10231; assay: MIC/CFM by microdilution (CLSI M27-A2); details: Candida albicans, ATCC10231; for MIC: read-out: MIC
[2] = tested on: Candida tropicalis USP B3; assay: MIC by microdilution (CLSI M27-A2); details: Candida tropicalis, USPB3; Table 14, C. Tropicalis UPS B3; read-out: MIC
[3] = tested on: Candida tropicalis USP 1658; assay: MIC by microdilution (CLSI M27-A2); details: Candida tropicalis, USP1658; Table 12, C. tropicalis USP 1658, 48 h, 35° C.; read-out: MIC
[4] = tested on: Candida parapsilosis USP 1933; assay: MIC/CFM by microdilution (CLSI M27-A2); details: Lodderomyces parapsilosis, USP1933; for MIC: read-out: MIC
[5] = tested on: Candida albicans USP 1565; assay: MIC by microdilution (CLSI M27-A2); details: Candida albicans, USP1565; Table 12, C. albicans USP 1565, 48 h, 35° C.; read-out: MIC
[6] = tested on: Candida guilhermondii USP; assay: MIC/CFM by microdilution (CLSI M27-A2); details: for MIC: read-out: MIC
[7] = tested on: Candida krusei ATCC 6258; assay: MIC/CFM by microdilution (CLSI M27-A2); details: Pichia kudriavzevii, ATCC6258, read-out: MIC
[8] = tested on: Candida krusei USP 2223; assay: MIC by microdilution (CLSI M27-A2); details: Pichia kudriavzevii, USP2223, read-out: MIC
[9] = tested on: Candida albicans OF-M3-20; assay: MIC/CFM by microdilution (CLSI M27-A2); details: Candida albicans, OFM320; for MIC: read-out: MIC
Description: (§1) Pure substances termed P1 and P2 previously dissolved in 20% DMSO, were diluted in RPMI medium, with final concentrations of 96 μg.mL-1. […] The same was also tested individually, diluted in RPMI medium, with initial concentration of 1 μL.mL-1. […] Cultures of Candida sp. were prepared and standardized in […] saline solution at 0.85%. For inoculums standardization, a spectrophotometer equipment was used, with wavelength at 530 nm and absorbance adjustment between 0.130 and 0.150, having as white the saline solution free of inoculum or any other contaminant, corresponding to concentrations of 10^6 CFU/mL. In this condition the inoculum “mother” was diluted 50 times and from this inoculum “child” the dilution was performed 20 times to obtain a standard inoculum in 10^3 cells per well. […] To aid in the growth view, were added to the wells dye 50 μL 2,3,5-triphenyltetrazolium chloride (TTC) at 5 mg.mL “1, being performed the readings after 4 hours of incubation. Prior to the addition of dye, aliquots of 96-well plate were transferred to Petri with Agar-Sabouraud Dextrose to determine the Minimum Fungicidal Concentration. Plates were incubated for 24 hours at 35° C.

[10] = tested on: Candida albicans OF-M7-19; assay: MIC/CFM by microdilution (CLSI M27-A2); details: Candida albicans, OFM719; for MIC: read-out: MIC
Description: as §1

[11] = tested on: Candida albicans USP 1; assay: MIC/CFM by microdilution (CLSI M27-A2); details: Candida albicans, USP1; for MIC: read-out: MIC
Description: as §1

[12] = tested on: Microsporum canis ATCC 32903; assay: MIC by microdilution, filamentous fungi (CLSI M38-A); details: ATCC32903, 168 h; Table 13, Microsporum canis ATCC 32903, 7 days, 28° C.; read-out: MIC
Description: (§2) Pure substances termed P1 and P2 previously dissolved in 20% DMSO, were diluted in RPMI medium, with final concentrations of 96 μg.mL-1. […] Cultures of filamentous fungi described below were inoculated in Agar-Batata Dextrose medium and inoculated for 7 days, at 28° C. Colonies of cultures inoculated for 7 days in an oven at 28° C. were shrouded with 0.85% saline solution, scraped and then transferred to conical tubes. After resting for 5 minutes, the supernatant was transferred to new conical tubes for subsequent quantification in spectrophotometer, at 530 nm, with the transmittance adjustment of 80-82% for A. niger and 70% for other microorganisms. After adjustment, there was a 1:50 dilution in RPM. The determination of Minimum Inhibitory Concentration was performed after 7 days, at 28° C. After the incubation period, aliquots of 96-well plates were transferred to Petri plates with Potato Dextrose Agar, to determine the Minimum Fungicidal Concentration. Plates were inoculated for more 7 days, at 28° C.

[13] = tested on: Phomopsis longicolla (soy isolate); assay: as above; details: Diaporthe longicolla, 168 h; Table 13, Phomopsis longicolla- soy, 7 days, 28° C.; read-out: MIC
Description: as §2

[14] = tested on: Trichophyton menthagrophyton ATCC 9533; assay: as above; details: ATCC9533, 168 h; Table 13, Trichophyton menthagrophyton ATCC 9533, 7 days, 28° C.; read-out: MIC
Description: as §2

[15] = tested on: C. Albicans USP 2; assay: MIC/CFM against Candida sp. strains
[16] = tested on: Candida glabrata ATCC; assay: MIC/CFM against Candida sp. strains; details: Nakaseomyces glabratus, Table 14, Candida glabrata ATCC

**Q.** For `Clc1ccc(COC(Cn2ccnc2)c2ccc(Cl)cc2Cl)c(Cl)c1` (centres unmarked) [Miconazol], which MIC ([1]; Table 12, C. albicans ATCC 10231, 48 h, 35° C.) is on record?
**A.** 4 µg/mL (≈ 9.61 µM)

**Q.** And the MFC ([1]; Table 14, C. Albicans ATCC 10231, read-out: CFM (Minimum Fungicidal Concentration))?
**A.** 1 µg/mL (≈ 2.4 µM)

**Q.** What about the MIC ([1]; Table 14, C. Albicans ATCC 10231) of the same compound?
**A.** < 0.5 µg/mL

**Q.** What about the MIC [2] of the same compound?
**A.** < 0.5 µg/mL

**Q.** And the MIC [3]?
**A.** < 2 µg/mL

**Q.** And the MIC ([4]; Table 12, C. parapsilosis USP 1933, 48 h, 35° C.)?
**A.** 1 µg/mL (≈ 2.4 µM)

**Q.** And the MFC ([4]; Table 14, C. parapsilosis USP 1933 ATCC, read-out: CFM (Minimum Fungicidal Concentration))?
**A.** < 0.5 µg/mL

**Q.** What about the MIC ([4]; Table 14, C. parapsilosis USP 1933 ATCC) of the same compound?
**A.** < 0.5 µg/mL

**Q.** And the MIC [5]?
**A.** < 0.125 µg/mL

**Q.** What about the MIC ([6]; Candida, Table 12, C. guilhermondii USP, 48 h, 35° C.) of the same compound?
**A.** 2 µg/mL (≈ 4.81 µM)

**Q.** And the MFC ([6]; Table 14, Candida guilhermondi USPATCC, read-out: CFM (Minimum Fungicidal Concentration))?
**A.** 1 µg/mL (≈ 2.4 µM)

**Q.** And the MIC ([6]; Table 14, Candida guilhermondi USPATCC)?
**A.** 1 µg/mL (≈ 2.4 µM)

**Q.** And the MIC ([7]; Table 12, C. krusei ATCC 6258, 48 h, 35° C.)?
**A.** < 1 µg/mL

**Q.** What about the MIC ([7]; Table 14, C. krusei ATCC) of the same compound?
**A.** 1 µg/mL (≈ 2.4 µM)

**Q.** What about the MIC ([8]; Table 12, C. krusei USP 2223, 48 h, 35° C.) of the same compound?
**A.** 1 µg/mL (≈ 2.4 µM)

**Q.** And the MIC ([8]; Table 14, C. krusei USP 2223)?
**A.** 4 µg/mL (≈ 9.61 µM)

**Q.** And the MIC ([9]; Table 12, C. albicans OF M3-20, 48 h, 35° C.)?
**A.** < 0.125 µg/mL

**Q.** What about the MFC ([9]; Table 14, C. Albicans OF M3-20, read-out: CFM (Minimum Fungicidal Concentration)) of the same compound?
**A.** < 0.5 µg/mL

**Q.** What about the MIC ([9]; Table 14, C. Albicans OF M3-20) of the same compound?
**A.** < 0.5 µg/mL

**Q.** And the MIC ([10]; Table 12, C. albicans OF M7-19, 48 h, 35° C.)?
**A.** < 0.125 µg/mL

**Q.** And the MFC ([10]; Table 14, C. Albicans OF M7-19, read-out: CFM (Minimum Fungicidal Concentration))?
**A.** < 0.5 µg/mL

**Q.** And the MIC ([10]; Table 14, C. Albicans OF M7-19)?
**A.** < 0.5 µg/mL

**Q.** And the MIC ([11]; Table 12, C. albicans USP 1, 48 h, 35° C.)?
**A.** < 0.125 µg/mL

**Q.** And the MFC ([11]; Table 14, C. Albicans USP 1, read-out: CFM (Minimum Fungicidal Concentration))?
**A.** 4 µg/mL (≈ 9.61 µM)

**Q.** What about the MIC ([11]; Table 14, C. Albicans USP 1) of the same compound?
**A.** 1 µg/mL (≈ 2.4 µM)

**Q.** And the MIC [12]?
**A.** 2 µg/mL (≈ 4.81 µM)

**Q.** And the MIC [13]?
**A.** < 0.125 µg/mL

**Q.** What about the MIC [14] of the same compound?
**A.** 2 µg/mL (≈ 4.81 µM)

**Q.** What about the MIC ([15]; Table 14, C. Albicans USP 2) of the same compound?
**A.** < 0.5 µg/mL

**Q.** And the MFC ([15]; Table 14, C. Albicans USP 2, read-out: CFM (Minimum Fungicidal Concentration))?
**A.** < 0.5 µg/mL

**Q.** And the MIC [16]?
**A.** < 0.5 µg/mL

**Q.** What about the MFC ([16]; read-out: CFM (Minimum Fungicidal Concentration)) of the same compound?
**A.** 2 µg/mL (≈ 4.81 µM)

From patent US20150126465A1, “PROCESS FOR PRODUCING DERIVATIVES OF PYROSTEGIA VENUSTA, DERIVATIVES OF PYROSTEGIA VENUSTA, PHARMACEUTICAL COMPOSITIONS AND ITS USES” (priority 2011, published 2015)
